This experiment deals with T1, human PDE10A full length (Homo sapiens, UniProt Q9Y233).
T1 construct: purchased Enzo Life Science, Lausen, Switzerland SE-534
Put plainly: human PDE10A full length Scintillation Proximity Assay (SPA). It is filed as biochemical. Conditions: 50 nM cGMP + 50 nM [3H]-cGMP, 20 min at room temperature, read-out: PDE10A inhibition IC50. On the procedure: The following test was carried out in order to determine the activity of the compounds of the present invention. PDE10A activity of the compounds of the present invention was determined using a Scintillation Proximity Assay (SPA)-based method similar to the one previously described (Fawcett, L. et al., Proc. Natl. Acad. Sci. USA 2000, 97(7), 3702-3707).
The human PDE10A full length assay was performed in 96-well micro titer plates. The reaction mixture of 50 μl contained 20 mM HEPES pH=7.5/10 mM MgCl2/0.05 mg/ml BSA (Sigma cat. # A-7906), 50 nM cGMP (Sigma, cat. # G6129) and 50 nM [^3H]-cGMP (GE Healthcare, cat. # TRK392 S.A. 13.2 Ci/mmol), 3.75 ng/well PDE10A enzyme (Enzo Life Science, Lausen, Switzerland cat # SE-534) with or without a specific test compound. A range of concentrations of the potential inhibitor was used to generate data for calculating the concentration of inhibitor resulting in 50% of the effect (e.g. IC50, the concentration of the competitor inhibiting PDE10A activity by 50%). Non-specific activity was tested without the enzyme. The reaction was initiated by the addition of the substrate solution (cGMP and [^3H]-cGMP) and allowed to progress for 20 minutes at room temperature. […] Afterwards, radioactive counts were measured on a Perkin Elmer TopCount Scintillation plate reader.
For orientation: Scintillation proximity formats need no separation of bound from free tracer.

The structures appear in SMILES notation. pIC50: −log10 of the molar value.

T1 sequence (Q9Y233 1-779 isoform Q9Y233-1): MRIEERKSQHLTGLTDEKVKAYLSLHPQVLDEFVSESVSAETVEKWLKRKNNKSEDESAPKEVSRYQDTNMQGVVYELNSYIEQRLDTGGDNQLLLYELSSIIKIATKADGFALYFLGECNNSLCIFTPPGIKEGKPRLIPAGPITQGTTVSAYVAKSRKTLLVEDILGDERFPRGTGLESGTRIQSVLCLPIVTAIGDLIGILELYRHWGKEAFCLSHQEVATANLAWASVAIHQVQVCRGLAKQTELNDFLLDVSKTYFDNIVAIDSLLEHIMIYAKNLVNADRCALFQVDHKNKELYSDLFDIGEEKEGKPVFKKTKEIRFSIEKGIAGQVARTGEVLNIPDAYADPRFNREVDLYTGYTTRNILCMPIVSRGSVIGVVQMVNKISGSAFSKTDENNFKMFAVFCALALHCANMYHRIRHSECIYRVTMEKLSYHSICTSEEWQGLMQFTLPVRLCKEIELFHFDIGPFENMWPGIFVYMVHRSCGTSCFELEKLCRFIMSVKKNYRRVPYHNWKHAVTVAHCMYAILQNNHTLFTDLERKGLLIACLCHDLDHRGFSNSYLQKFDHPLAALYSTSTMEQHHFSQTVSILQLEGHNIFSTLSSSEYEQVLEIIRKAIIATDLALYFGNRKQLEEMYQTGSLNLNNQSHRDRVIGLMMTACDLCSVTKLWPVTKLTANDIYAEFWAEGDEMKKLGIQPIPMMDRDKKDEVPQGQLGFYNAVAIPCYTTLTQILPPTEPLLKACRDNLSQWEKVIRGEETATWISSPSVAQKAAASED

As a reminder, the pIC50 is the negative decadic logarithm of the IC50, by convention in mol/L. For the compound `CN(CCF)C(=O)c1cnn(C)c1C(=O)Nc1ccn2nc(-c3ccccc3)nc2c1` [Compound 4, 2-methyl-2H-pyrazole-3,4-dicarboxylic acid 4-[(2-fluoro-ethyl)-methyl-amide]3-[(2-phenyl-[1,2,4]triazolo[1,5-a]pyridin-7-yl)-amide]], the pIC50 was 9.03. Take `COc1cccc(-c2nc3cc(NC(=O)c4c(C(=O)N5CCOCC5)cnn4C)ccn3n2)c1` [Compound 21, 2-Methyl-4-(morpholine-4-carbonyl)-2H-pyrazole-3-carboxylic acid [2-(3-methoxy-phenyl)-[1,2,4]triazolo[1,5-a]pyridin-7-yl]-amide]: the pIC50 is 8.29.

The values above are taken from patent US20160031878A1, “RADIOLABELED COMPOUNDS” (Hoffmann-La Roche Inc., priority 2013, published 2016).
